What was measured:
[1] = molecular target: T1, α2β3γ2 GABAA receptors (Rattus norvegicus, UniProt P18508+P23576); assay: Two-electrode voltage clamp in Xenopus oocytes, α2β3γ2; assay type: cell-based; conditions: FIG. 1, Xenopus oocytes
T1 construct: expressed in transfected cells; host or cells: Xenopus laevis oocytes injected with cRNA
Protocol: 1. Effects of SH-053-S—CH3 8 on GABA(A) receptors were tested by two-electrode voltage clamp experiments in cRNA injected Xenopus oocytes that functionally expressed several subtype combinations of GABAA receptors. […] This oocyte profile is indicative of an anxiolytic agent devoid of sedative, ataxic and anterograde amnestic side effects.
The methods were based on those published previously. See Li, X., et al., (2003) J. Med. Chem. 46: 5567-5570.
Cloning of GABAA receptor subunits α1, β3 and γ2 into pCDM8 expression vectors (Invitrogen, CA) has been described elsewhere ([…]). GABAA receptor subunit α4 was cloned in an analogous way. cDNAs for subunits α2, α3 and α5 were gifts from P. Malherbe and were subcloned into pCI-vector (Li, et al., 2003). cDNA for subunit α6 was a gift from P. Seeburg and was subcloned into the vector pGEM-3Z (Promega). After linearizing the cDNA vectors with appropriate restriction endonucleases, capped transcripts were produced using the mMessage mMachine T7 transcription kit (Ambion, Tex.). The capped transcripts were polyadenylated using yeast poly(A) polymerase (USB, OH) and were diluted and stored in diethylpyrocarbonate-treated water at −70° C. (Li, et al., 2003). […]

[2] = tested on: Male BALB/c mice; assay: Light/dark test in mice; assay type: in vivo, mouse; conditions: ip, FIG. 2 A, *p<0.05 vs. vehicle
Protocol: (§1) Male BALB/c mice approximately 8 to 10 weeks old (18-25 grams) served as subjects in the locomotor activity and light/dark assays. Animals were housed in groups of four on a 14 hour light/10 hour dark cycle and were given free access to food and water. All experiments were conducted during the animals' light cycle (0800-1700).
(§2) Behavioral testing was conducted in an illuminated open field chamber (11.0″×11.0″; Med Associates MED-OFA-510) equipped with infrared beams and sensors which was placed in a sound attenuating cubicle. Horizontal locomotor activity was measured by recording the total number of beams crossed in a 60 minute period. Anxiolytic-like behavior was assessed using the same chambers with the addition of a Plexiglas insert that is opaque to visible light creating separate darkened and illuminated sides (5.5″×11.0″) of the chamber. An opening in the middle of the dark insert allowed the animals to move freely between each side of the chamber. Animals were place in the center of the illuminated side of the chamber and allowed to freely explore for 10 minutes. The amount of time (sec) that the animals spent in each side of the chamber was recorded. Data were analyzed using one-way analysis of variance and Bonferroni t-tests.
Vehicle and doses of SH-053-S—CH3 8 (10.0-100.0 mg/kg) and SH-053-R-CH3 29 (56.0 mg/kg) were tested in the light/dark and locomotor activity assays. […]

[3] = tested on: Male BALB/c mice; assay: Locomotor activity in mice; assay type: in vivo, mouse; conditions: ip
Protocol: as §1, §2
Vehicle and doses of SH-053-S—CH3 8 (10.0-100.0 mg/kg) and SH-053-R-CH3 29 (56.0 mg/kg) were tested in the light/dark and locomotor activity assays. All drugs were administered intraperitoneally (ip) 30 minutes before each test in volumes of approximately 1 ml/kg. Drugs were dissolved in varying amounts of 95% ethanol (5-10%), propylene glycol and sterile water and diluted to the desired concentration with a solution of 50% propylene glycol and 50% sterile water.

T1 sequence (P23576 29-451): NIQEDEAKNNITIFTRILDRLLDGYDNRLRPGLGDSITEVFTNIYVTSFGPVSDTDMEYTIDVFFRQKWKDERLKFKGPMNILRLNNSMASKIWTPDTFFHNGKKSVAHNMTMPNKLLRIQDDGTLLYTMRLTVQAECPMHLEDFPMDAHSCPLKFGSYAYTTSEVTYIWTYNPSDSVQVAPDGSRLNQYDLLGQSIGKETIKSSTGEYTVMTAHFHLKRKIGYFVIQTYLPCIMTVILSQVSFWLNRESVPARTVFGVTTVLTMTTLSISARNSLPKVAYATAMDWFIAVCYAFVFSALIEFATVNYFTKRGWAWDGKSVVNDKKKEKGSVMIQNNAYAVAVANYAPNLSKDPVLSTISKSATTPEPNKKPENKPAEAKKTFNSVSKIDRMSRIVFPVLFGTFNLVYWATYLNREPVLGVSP
T1 sequence (P63079 26-473 partner): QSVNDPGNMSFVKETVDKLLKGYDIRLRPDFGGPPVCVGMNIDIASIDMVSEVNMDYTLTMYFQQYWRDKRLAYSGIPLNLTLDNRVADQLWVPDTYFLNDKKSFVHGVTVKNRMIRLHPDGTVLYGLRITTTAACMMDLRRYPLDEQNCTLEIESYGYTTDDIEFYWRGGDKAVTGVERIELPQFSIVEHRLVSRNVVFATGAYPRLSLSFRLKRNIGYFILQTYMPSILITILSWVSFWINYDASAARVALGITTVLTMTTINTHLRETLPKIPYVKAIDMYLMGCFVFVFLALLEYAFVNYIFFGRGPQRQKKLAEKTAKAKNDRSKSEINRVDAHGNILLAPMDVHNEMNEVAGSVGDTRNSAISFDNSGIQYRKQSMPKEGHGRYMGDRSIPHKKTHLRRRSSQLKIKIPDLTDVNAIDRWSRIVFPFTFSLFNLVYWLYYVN
T1 sequence (P18508 39-466): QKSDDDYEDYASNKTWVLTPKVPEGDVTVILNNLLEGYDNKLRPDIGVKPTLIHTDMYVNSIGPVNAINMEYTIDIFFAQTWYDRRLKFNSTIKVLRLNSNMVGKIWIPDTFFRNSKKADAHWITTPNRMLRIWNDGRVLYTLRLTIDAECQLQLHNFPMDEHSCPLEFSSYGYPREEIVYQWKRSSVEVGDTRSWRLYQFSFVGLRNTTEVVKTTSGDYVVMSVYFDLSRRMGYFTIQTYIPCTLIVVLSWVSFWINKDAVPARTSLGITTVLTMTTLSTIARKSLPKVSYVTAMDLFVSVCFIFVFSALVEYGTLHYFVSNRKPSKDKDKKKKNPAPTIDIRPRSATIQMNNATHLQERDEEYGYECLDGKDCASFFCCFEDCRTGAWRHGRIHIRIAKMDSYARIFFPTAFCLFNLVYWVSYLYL

SMILES: C#Cc1ccc2c(c1)C(c1ccccc1)=NC(C)c1c(C(=O)OCC)ncn1-2 (stereo not drawn) [SH-053-S—CH3, 8-Ethynyl-4-methyl-6-phenyl-4H-2,5,10b-triaza-benzo[e]azulene-3-carboxylic acid ethyl ester]
- efficacy at α2β3γ2 subtypes [1]: agonist
- time spent in the lighted chamber in the light/dark test [2]: increased time spent in the lighted chamber
- locomotor activity ([3]; 56 mg/kg): did not suppress locomotor activity
- locomotor activity ([3]; 100 mg/kg): did not suppress locomotor activity in any significant fashion
- locomotor activity ([3]; FIG. 2 B): No effects on locomotor activity were observed
- melting point: 197 to 199 °C

Reference: patent US7618958B2, “Stereospecific anxiolytic and anticonvulsant agents with reduced muscle-relaxant, sedative-hypnotic and ataxic effects” (WISYS Technology Foundation, Inc., priority 2004, dated 2009)
